Experimental data reported in PubChem BioAssay (NCI).
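Results reflect a 48-hour exposure of cells in 96-well plates to compound at five concentrations. TGI marks complete inhibition of growth.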

Legend:
Experiment in all cases: inhibition of tumour cell growth, NCI panel, 48 h
[1] = system: SNB-75 CNS
[2] = system: TK-10 renal
[3] = system: HOP-92 NSCLC
[4] = system: UACC-257 melanoma
[5] = system: HCT-15 colon
[6] = system: SN12C renal
[7] = system: CAKI-1 renal
[8] = system: OVCAR-5 ovarian
[9] = system: HT29 colon
[10] = system: IGROV1 ovarian
[11] = system: ACHN renal
[12] = system: OVCAR-8 ovarian
[13] = system: SR leukemia
[14] = system: CCRF-CEM leukemia
[15] = system: HL-60(TB) leukemia
[16] = system: DLD-1 colon
[17] = system: HCC-2998 colon
[18] = system: SF-539 CNS
[19] = system: LOX IMVI melanoma
[20] = system: U251 CNS

SMILES | TGI [1] [µM] | TGI [2] [µM] | TGI [3] [µM] | TGI [4] [µM] | TGI [5] [µM] | TGI [6] [µM] | TGI [7] [µM] | TGI [8] [µM] | TGI [9] [µM] | TGI [10] [µM] | TGI [11] [µM] | TGI [12] [µM] | TGI [13] [µM] | TGI [14] [µM] | TGI [15] [µM] | TGI [16] [µM] | TGI [17] [µM] | TGI [18] [µM] | TGI [19] [µM] | TGI [20] [µM]
COC(=O)NC(=O)c1cn(CCCOC(=O)CCCCCCCCC(=O)OCCCn2cc(C(=O)NC(=O)OC)c(=O)[nH]c2=O)c(=O)[nH]c1=O | 50.1 | > 100 | 95.2 | > 100 | > 100 | > 100 | > 100 | > 100 | > 100 | > 100 | > 100 | > 100 | > 100 | > 100 | > 100 | > 100 | > 100 | > 100 | > 100 | 
CC1(C)N=C(C(=O)c2ccccc2)N(O)C1(O)c1ccccc1 (stereo unspecified) | > 100 | > 100 | > 100 | > 100 | > 100 | > 100 | > 100 | > 100 | > 100 | > 100 | > 100 | > 100 | > 100 | > 100 | > 100 |  | > 100 | > 100 | > 100 | > 100
Cc1nc(Nc2ccccc2)sc1C(=O)NNc1ccc([N+](=O)[O-])cc1[N+](=O)[O-] | 95.3 | > 100 |  | > 100 | > 100 | > 100 | > 100 | > 100 | > 100 | > 100 | > 100 | > 100 | 65.7 | 58.2 | 41.2 | > 100 | > 100 | > 100 | 87.9 | > 100
CCN(CC)Cc1cc(Nc2c3ccccc3nc3c4ccccc4n(C)c23)ccc1O | 27.3 | 28.2 | 18.9 | 23.3 | 22.8 | 27.5 | 26 | 21.9 | 17.8 | 31.2 | 24 | 15.6 |  | 6.44 | 12.9 | 21 |  | 10.9 | 9.1 | 22.7
Cn1c2ccccc2n2c3ccccc3c(=O)c(C#N)c12 | > 96.6 | > 100 | > 76.7 | > 100 | > 100 | > 100 | 35.2 | > 100 | > 100 | > 87 | 13.6 | > 44.5 | 48.3 | > 100 | > 100 |  | > 100 | > 80.8 | > 56.1 | 55.5
CC1C=C[C@H](Sc2ccccc2)CC[C@@]1(C)O (stereo partly specified) | > 100 | > 100 | > 100 | > 100 | > 100 | > 100 | > 100 | > 100 | > 100 | > 100 | > 100 | > 100 |  | > 100 | > 100 | > 100 | > 100 | > 100 | > 100 | > 100
COc1cc2c(c(OC)c1OC)C(=O)[C@H](Br)[C@H]2NC(=O)NCCCl | > 100 | > 100 | > 100 | > 100 | > 100 | > 100 | > 100 | > 100 | > 100 | > 100 | > 100 | > 100 | > 100 | > 100 | > 100 |  | > 100 | > 100 | > 100 | > 100
COc1ccc(N2C(=O)[C@@H]3[C@H](C2=O)c2[nH]c4ccccc4c2C2CCC(C(C)(C)C)C[C@@H]23)cc1 (stereo partly specified) | 38 | 74.6 |  | > 100 | > 100 | 37.5 | > 68.9 | > 100 | > 100 | > 100 | 87.6 | 42.2 |  | 43.7 | > 100 | > 100 | > 100 | 62.6 | > 58.6 | 49.1
CCc1cccc(C(C)CC)c1NC(=O)C(=O)C(CC(=O)Nc1ccc(Cl)c(Cl)c1)C(=O)OC (stereo unspecified) | > 100 | > 100 | > 100 | > 100 | > 100 | > 100 | > 100 | > 100 | > 100 | > 100 | 69.8 | > 100 | > 100 | > 100 | > 100 | > 100 | > 100 | > 100 |  | > 100
COc1cccc(NC(=O)CC(=O)N2N=C(C)C(N=Nc3ccc(S(=O)(=O)CCOS(=O)(=O)O)cc3)C2=O)c1 (stereo unspecified) | 15.5 | 18.9 | 13.2 | 23 | 12.1 | 20.1 | 10.5 | 44.9 | 13.8 | 17.3 | 15.7 | 15.5 | > 100 | > 100 | 6.85 |  | 29.1 | 28.3 | 4.25 | 17.9
COC(=O)c1ccccc1NC(=O)C(=O)CC(=O)CC(c1ccccc1)c1c(O)c2ccccc2oc1=O (stereo unspecified) |  | > 100 |  | > 100 |  | > 100 | > 100 | > 100 | > 100 | > 100 | > 100 | > 100 | > 100 | > 100 | > 100 | > 100 | > 100 | > 100 |  | 
COC(=O)C1N=CSCC1(C)O (stereo unspecified) | > 100 | > 100 | > 100 | > 100 | > 100 | > 100 | > 100 | > 100 | > 100 | > 100 | > 100 | > 100 |  | > 100 | > 100 | > 100 | > 100 | > 100 | > 100 | 
